The source made the active and inactive calls.
How the values were obtained:
[1] = target: T1, Sentrin-specific protease 7 (Homo sapiens, UniProt Q9BQF6); format: functional;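 note: Luminescence-based dose-response confirmation of ultra-high-throughput screening hits, measuring inhibition of SENP7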
T1 sequence (Q9BQF6 whole entry): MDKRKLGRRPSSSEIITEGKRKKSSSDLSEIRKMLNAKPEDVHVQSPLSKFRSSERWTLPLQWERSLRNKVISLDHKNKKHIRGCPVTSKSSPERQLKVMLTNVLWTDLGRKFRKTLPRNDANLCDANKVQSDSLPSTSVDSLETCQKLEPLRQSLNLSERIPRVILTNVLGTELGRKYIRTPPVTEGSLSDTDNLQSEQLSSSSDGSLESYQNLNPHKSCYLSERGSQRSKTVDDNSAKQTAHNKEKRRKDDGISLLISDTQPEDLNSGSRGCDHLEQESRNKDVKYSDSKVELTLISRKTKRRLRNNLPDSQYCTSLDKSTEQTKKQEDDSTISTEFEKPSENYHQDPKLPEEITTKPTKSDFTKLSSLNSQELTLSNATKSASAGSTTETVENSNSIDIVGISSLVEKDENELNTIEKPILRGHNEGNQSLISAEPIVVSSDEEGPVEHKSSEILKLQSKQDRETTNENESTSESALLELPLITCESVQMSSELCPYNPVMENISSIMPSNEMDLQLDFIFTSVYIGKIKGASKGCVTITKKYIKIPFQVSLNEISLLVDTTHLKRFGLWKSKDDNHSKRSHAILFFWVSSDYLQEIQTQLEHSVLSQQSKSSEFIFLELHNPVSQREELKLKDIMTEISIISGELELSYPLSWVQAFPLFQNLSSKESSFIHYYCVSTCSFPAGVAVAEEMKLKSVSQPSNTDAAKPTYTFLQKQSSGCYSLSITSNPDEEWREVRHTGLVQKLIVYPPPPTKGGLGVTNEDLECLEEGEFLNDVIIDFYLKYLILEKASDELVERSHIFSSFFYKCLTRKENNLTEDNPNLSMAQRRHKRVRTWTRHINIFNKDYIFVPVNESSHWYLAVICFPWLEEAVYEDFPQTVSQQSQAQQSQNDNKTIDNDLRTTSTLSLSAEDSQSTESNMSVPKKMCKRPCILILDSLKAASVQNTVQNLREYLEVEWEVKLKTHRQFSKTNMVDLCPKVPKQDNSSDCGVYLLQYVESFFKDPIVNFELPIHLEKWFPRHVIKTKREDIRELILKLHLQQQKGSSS

Caspase-3 = target: T2, Caspase-3 (Homo sapiens, UniProt P42574); format: functional;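 note: Dose-response selectivity test against caspase-3 for candidate inhibitors of sentrin-specific proteases (SENPs)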
T2 sequence (P42574 whole entry): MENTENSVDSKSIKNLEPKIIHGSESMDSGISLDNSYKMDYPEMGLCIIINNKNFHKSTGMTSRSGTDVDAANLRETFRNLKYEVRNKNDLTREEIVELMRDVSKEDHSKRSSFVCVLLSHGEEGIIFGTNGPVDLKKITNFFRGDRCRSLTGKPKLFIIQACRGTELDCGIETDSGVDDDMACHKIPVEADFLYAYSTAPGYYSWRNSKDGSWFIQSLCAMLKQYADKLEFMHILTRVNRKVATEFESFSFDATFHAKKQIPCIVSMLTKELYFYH

[2] = target: T3, Sentrin-specific protease 8 (Homo sapiens, UniProt Q96LD8); format: functional
T3 sequence (Q96LD8 whole entry): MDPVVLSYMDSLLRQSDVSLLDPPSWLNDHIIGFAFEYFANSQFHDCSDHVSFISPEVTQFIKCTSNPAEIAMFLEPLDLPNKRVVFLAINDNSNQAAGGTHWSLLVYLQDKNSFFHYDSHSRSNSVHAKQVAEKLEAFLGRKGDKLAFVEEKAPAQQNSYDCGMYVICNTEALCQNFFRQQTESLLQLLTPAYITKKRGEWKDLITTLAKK

[3] = target: T4, Sentrin-specific protease 6 (Homo sapiens, UniProt Q9GZR1); format: functional;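 note: Luminescence-based dose-response confirmatory assay of SENP6 inhibition, following up an ultra-high-throughput screen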
T4 sequence (Q9GZR1 whole entry): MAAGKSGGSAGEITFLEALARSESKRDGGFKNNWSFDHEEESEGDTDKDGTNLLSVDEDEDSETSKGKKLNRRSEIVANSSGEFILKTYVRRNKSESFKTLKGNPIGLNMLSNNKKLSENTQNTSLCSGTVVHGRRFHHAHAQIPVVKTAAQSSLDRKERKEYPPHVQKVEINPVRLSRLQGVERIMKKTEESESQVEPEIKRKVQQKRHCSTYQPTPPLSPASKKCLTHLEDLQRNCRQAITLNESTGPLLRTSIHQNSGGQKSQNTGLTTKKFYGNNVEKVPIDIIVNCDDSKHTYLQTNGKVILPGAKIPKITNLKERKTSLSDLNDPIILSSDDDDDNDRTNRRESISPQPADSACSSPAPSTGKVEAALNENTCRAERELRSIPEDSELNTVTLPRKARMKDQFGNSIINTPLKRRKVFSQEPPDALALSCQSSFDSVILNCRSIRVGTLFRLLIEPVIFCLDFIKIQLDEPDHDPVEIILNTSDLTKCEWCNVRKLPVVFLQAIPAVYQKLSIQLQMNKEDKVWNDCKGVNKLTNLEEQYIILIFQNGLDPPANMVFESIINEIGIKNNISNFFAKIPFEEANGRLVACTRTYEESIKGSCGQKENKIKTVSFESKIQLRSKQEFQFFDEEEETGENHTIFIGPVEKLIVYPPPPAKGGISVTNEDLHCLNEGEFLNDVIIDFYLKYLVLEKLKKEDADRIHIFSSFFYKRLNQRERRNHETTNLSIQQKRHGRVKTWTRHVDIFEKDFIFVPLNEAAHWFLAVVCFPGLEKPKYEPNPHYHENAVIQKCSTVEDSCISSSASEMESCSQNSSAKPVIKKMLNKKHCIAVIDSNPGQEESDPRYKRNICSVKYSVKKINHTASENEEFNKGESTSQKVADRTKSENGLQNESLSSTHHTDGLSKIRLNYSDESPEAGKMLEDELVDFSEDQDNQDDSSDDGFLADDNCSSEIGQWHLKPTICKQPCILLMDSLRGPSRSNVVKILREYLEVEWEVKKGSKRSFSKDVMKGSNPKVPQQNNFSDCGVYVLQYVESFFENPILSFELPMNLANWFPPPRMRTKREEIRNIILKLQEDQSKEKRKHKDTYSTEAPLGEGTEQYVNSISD

[4] = reduction of Shn3 3'UTR-driven luciferase in osteoblasts – cell-based, Clone20 osteoblasts, firefly luciferase, cherry-picked, dose response (AID 624132); format: functional;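 note: firefly luciferase luminescence from reporter carrying the Shn3 3'UTR in osteoblasts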
[5] = Luminescence Cell-Based Dose Retest to Confirm Inhibitors of Cancer Stem Cells. [Related pubchem assays (depositor defined):AID2717, AID2721]; format: functional; details: Homo sapiens
[6] = non-specific 3'UTR reporter inhibition in Clone20-Shn3RL – cell-based, Renilla luciferase, cherry-picked, counter-screen for Shn3 inhibitor project, dose response (AID 624133); format: functional
[7] = microbe, parasite or virus in culture; format: functional; details: Mycobacterium tuberculosis
[8] = loss of viability in HepG2 cells – cell-based, CellTiter-Glo, cherry-picked, cytotoxicity control for Shn3 inhibitor project, dose response (AID 624134); format: functional
[9] = A Cell Based Secondary Assay To Explore Cytotoxicity of Compounds that Sensitize Mycobacterium Tuberculosis to Beta-Lactam Antibiotics.; format: functional
[10] = viability of PTEN-deleted HCT116 cells – cell-based, HCT116 PTEN knockout, dose response (AID 1047); format: functional;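 note: HCT116 colon tumor cells with PTEN knocked out; cells exposed to compound for 60 hours before readout; potency for loss of cell viability measured by luminescence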
[11] = viability of HCT116 lacking mutant beta-catenin – cell-based, human colon tumor, dose response (AID 1045); format: functional;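 note: HCT116 colon tumor cells with beta catenin knocked out; cells exposed to compound for 60 hours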
[12] = HIV-1 AD8 envelope cell-cell fusion blockers – cherry-pick, dose response (AID 652062); format: functional, cell-based;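 note: luciferase signal from cell-cell fusion driven by HIV-1 clade B AD8 Env; potency is for inhibitors of fusion seen as a drop in luminescence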
[13] = blockers of HIV-1 envelope-mediated cell-cell fusion – cherry-pick, dose response (AID 652057); format: functional, cell-based
[14] = blockers of HIV-1 ZM109 envelope-driven cell-cell fusion – HeLa effector, CEM target cells, luciferase, cherry-pick, dose response (AID 652058); format: functional, cell-based;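 note: luciferase signal from HIV-1 Env mediated cell-cell fusion of effector and target cells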
[15] = off-target signal loss in HeLa-CEM21 co-culture – HeLa F-luc CTL cells, cherry-picked, counter-screen for HIV-1 Env fusion inhibitor project, dose response (AID 652040); format: functional, cell-based;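 note: potency for signal decrease marking cytotoxic or nonspecific inhibition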
[16] = target: FAD-linked sulfhydryl oxidase ALR (Homo sapiens, UniProt P55789); assay: ALR-catalysed DTT oxidation blockers – biochemical, H2O2 detection, luminescence, cherry-pick, dose response (AID 493248)
Sequence of FAD-linked sulfhydryl oxidase ALR (P55789 whole entry): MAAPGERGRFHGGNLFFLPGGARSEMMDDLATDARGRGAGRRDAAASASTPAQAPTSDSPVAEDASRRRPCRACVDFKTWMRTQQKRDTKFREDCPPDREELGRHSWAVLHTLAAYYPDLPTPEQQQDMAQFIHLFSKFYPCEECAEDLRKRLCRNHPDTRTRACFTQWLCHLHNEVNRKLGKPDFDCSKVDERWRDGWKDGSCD

[17] = target: T3, Sentrin-specific protease 8; format: functional; remark: listed apart in the source
[18] = target: T3, Sentrin-specific protease 8; format: functional; remark: listed apart in the source
Paired box protein Pax-8 = Paired box protein Pax-8 (Homo sapiens, UniProt Q06710); assay: PAX8 transcriptional activity inhibition in RMG-I – RMG-I cells, luciferase, cherry-pick, dose response (AID 687027); format: functional, cell-based;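 note: luciferase reporter driven by Pax8 target thyroperoxidase promoter measured by SteadyGlo luminescence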
Sequence of Paired box protein Pax-8 (Q06710 whole entry): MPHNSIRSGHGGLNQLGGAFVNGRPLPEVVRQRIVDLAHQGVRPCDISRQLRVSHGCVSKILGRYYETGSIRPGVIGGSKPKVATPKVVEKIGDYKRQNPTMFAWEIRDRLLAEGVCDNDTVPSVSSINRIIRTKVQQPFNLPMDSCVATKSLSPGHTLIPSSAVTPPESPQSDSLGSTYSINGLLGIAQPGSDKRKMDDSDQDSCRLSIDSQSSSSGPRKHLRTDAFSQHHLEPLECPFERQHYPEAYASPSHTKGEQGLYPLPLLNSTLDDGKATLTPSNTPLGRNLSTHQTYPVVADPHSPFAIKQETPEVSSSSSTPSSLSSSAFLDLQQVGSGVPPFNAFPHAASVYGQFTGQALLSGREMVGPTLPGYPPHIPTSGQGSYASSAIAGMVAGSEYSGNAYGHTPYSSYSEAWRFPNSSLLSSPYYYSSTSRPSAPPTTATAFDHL

[19] = OVCAR-3 cell viability loss – plate reader, dry powder samples, PAX8 inhibitor project, dose response (AID 743044); format: functional, cell-based
[20] = OVCAR8 cell viability loss – plate reader, dry powder samples, PAX8 project, dose response (AID 743197); format: functional, cell-based; details: OVCAR-8

SMILES: COC(=O)c1ccc(-c2ccc(F)cc2)nc1C
- IC50 [1]: 8.25 µM (active)
- IC50 (Caspase-3): 13.2 µM (active)
- IC50 [2]: 64.9 µM (active)
- IC50 [3]: 31.9 µM (active)

SMILES: CCOc1cc2c(cc1OCC)-n1cccc1C(c1ccc(C(C)C)cc1)NC2 (centres undefined)
- AC50 [4]: 7.22 µM (active)
- AC50 [5]: 11.4 µM (active)
- AC50 [6]: 4.99 µM (active)
- CC50 [7]: > 40 µM (active)
- AC50 [8]: 67.7 µM (active)

SMILES: Cc1ccc(C(=O)c2sc3c(c2N)c(=O)[nH]c(=O)n3CCc2ccccc2)cc1
- CC50 [9]: 25.1 µM (active)
- EC50 [10]: 10.7 µM (active)
- EC50 [11]: 9.5 µM (active)

SMILES: CCOC(=O)C1(Cc2ccc(Cl)cc2)CCN(C(C)Cc2ccc(O)c(OC)c2)CC1 (centres undefined)
- AC50 [4]: 1.33 µM (active)
- AC50 [6]: 2.65 µM (active)
- AC50 [8]: 17.6 µM (active)

SMILES: COc1ccccc1N1CCN(S(=O)(=O)c2ccc3[nH]c(-c4ccccc4)nc3c2)CC1
- CC50 [9]: > 40 µM (active)

SMILES: CN(c1ccccc1)S(=O)(=O)c1ccc(Cl)c(C(=O)Nc2nc3ccccc3[nH]2)c1
- AC50 [12]: 5.66 µM (active)
- AC50 [13]: 3.18 µM (active)
- AC50 [14]: 1.6 µM (active)
- AC50 [15]: 5.75 µM (active)

SMILES: COc1cccc(C(=O)NC(=S)Nc2ccc(N(C)C)cc2)c1
- IC50 [1]: 6.14 µM (active)
- IC50 (Caspase-3): 10.7 µM (active)
- IC50 [2]: 21 µM (active)
- IC50 [3]: 16.1 µM (active)

SMILES: COc1ccc(/C=C2/CCCC(C(=O)C(F)(F)F)=C2O)cc1OC
- CC50 [9]: > 40 µM (active)

SMILES: CN(C)c1ccc(NC(=O)Oc2ccccc2)cc1
- AC50 [16]: 1.88 µM (active)
- IC50 [17]: > 100 µM (inactive)
- IC50 [18]: 78.1 µM (inactive)

SMILES: O=C(Nc1ccc(S(=O)(=O)N2CCCCC2)cc1)C1CCCN(C(=O)c2ccc(Cl)cc2)C1 (centres undefined)
- CC50 [9]: > 40 µM (active)

SMILES: COc1ccc(C(C(=O)NC(C)(C)C)N(CCC(C)C)C(=O)CCC(=O)Nc2cc(C)on2)cc1 (centres undefined)
- AC50 [12]: 22.8 µM (active)
- AC50 [13]: 7.02 µM (active)
- AC50 [14]: 18.1 µM (active)
- AC50 [15]: 16.6 µM (active)

SMILES: CC(C)(C)NCCCOc1ccc(Cl)cc1C(C)(C)C
- CC50 [9]: 39.3 µM (active)

SMILES: COC(=O)[C@@]1(C)[C@H]2C(=O)N(Cc3ccccc3)C(=O)[C@H]2[C@H]2CN=C(SCc3ccc(C#N)cc3)N21
- AC50 [12]: 0.609 µM (active)
- AC50 [13]: 0.566 µM (active)
- AC50 [14]: 0.785 µM (active)
- AC50 [15]: 1.09 µM (active)

SMILES: CCOc1ccccc1Nc1cc(C)nc2ccccc12
- AC50 [4]: 8.14 µM (active)
- AC50 [6]: 5.31 µM (active)
- AC50 [8]: 48.6 µM (active)

SMILES: C[C@H](CO)N1C[C@H](C)[C@H](CN(C)C(=O)c2ccncc2)OCc2ccccc2-c2c(n(C)c3ccccc23)C1=O
- AC50 [12]: 33.1 µM (active)
- AC50 [13]: 9.94 µM (active)
- AC50 [14]: 4.23 µM (active)

SMILES: O=C(Nc1ccc(F)cc1)N1CC(=O)N2[C@@H](CO)[C@@H](c3ccc(C#Cc4ccc(F)cc4)cc3)[C@@H]2C1
- AC50 (Paired box protein Pax-8): 10.4 µM (active)
- AC50 [19]: 16.2 µM (active)
- AC50 [20]: > 70 µM (inactive)

SMILES: C[C@H]1CN([C@@H](C)CO)C(=O)c2c(c3ccccc3n2C)-c2ccccc2CO[C@@H]1CN(C)S(=O)(=O)c1ccsc1
- AC50 (Paired box protein Pax-8): 3.6 µM (active)
- AC50 [19]: 51.1 µM (active)
